Numbered stars: 1 amine (or outer) side, 2 acyl side, 3 side chain; on linkers, the order of the positions; unused ones are H or OH. Bridge positions count the residues as written; N and C are the ends. Square brackets hold non-standard residues; d marks the D form. Peptide text beside a SMILES is read from it. X1 = O=C(C(N[*:1])C1CCc2ccccc2C1)[*:2]; mXylylene = c1cc(C[*:1])cc(C[*:2])c1; NMeY = CN[C@@H](Cc1ccc(O)cc1)C(=O)O; Chg = N[C@H](C(=O)O)C1CCCCC1; Phg = N[C@H](C(=O)O)c1ccccc1; Tle = CC(C)(C)[C@H](N)C(=O)O; Dab = NCC[C@H](N)C(=O)O; Nva = CCC[C@H](N)C(=O)O; Aib = CC(C)(N)C(=O)O; Mpa = O=C(O)CCS
Molecular target: T1, human plasma kallikrein (Homo sapiens, UniProt P03952)
T1 construct: purchased Enzyme Research Laboratories HPKa 1303
T1 sequence (P03952 20-390 limits assumed): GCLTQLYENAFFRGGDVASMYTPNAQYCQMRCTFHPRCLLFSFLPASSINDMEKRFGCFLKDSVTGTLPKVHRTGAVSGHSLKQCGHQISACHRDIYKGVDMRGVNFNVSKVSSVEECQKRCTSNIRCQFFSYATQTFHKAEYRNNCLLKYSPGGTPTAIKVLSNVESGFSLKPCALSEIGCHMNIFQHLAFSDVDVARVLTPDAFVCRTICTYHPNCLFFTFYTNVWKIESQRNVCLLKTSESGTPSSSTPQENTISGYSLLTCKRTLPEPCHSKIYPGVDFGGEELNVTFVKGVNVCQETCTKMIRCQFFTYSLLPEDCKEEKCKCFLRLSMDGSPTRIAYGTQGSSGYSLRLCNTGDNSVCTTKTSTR
T1 sequence (P03952 391-638 limits assumed): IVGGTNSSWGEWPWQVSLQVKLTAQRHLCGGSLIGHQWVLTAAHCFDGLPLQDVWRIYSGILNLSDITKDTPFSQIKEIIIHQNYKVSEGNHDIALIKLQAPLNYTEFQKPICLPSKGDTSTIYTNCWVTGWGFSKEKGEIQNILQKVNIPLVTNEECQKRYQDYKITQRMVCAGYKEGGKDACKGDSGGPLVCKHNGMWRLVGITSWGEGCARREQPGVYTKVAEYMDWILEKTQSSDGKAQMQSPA
Test: Enzyme inhibition assay (fluorogenic substrate H-Pro-Phe-Arg-AMC)
Assay type: biochemical
Conditions: Kallikrein inhibitory activity; 1 nM activated human kallikrein, 500 μM H-Pro-Phe-Arg-AMC, 1 hour room temperature; read-out: Avg. IC50
Procedure, shortened: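 IC50 was determined from AMC fluorescence (ex 360/em 460 nm) after 1 h of reaction at room temperature with 500 μM final substrate. Before this, peptides in ten 8-fold serial dilutions were incubated 5 min with 1 nM final activated kallikrein. The buffer was Tris-HCl pH 7.2 containing NaCl, CaCl2 and Brij-35.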

Row | SMILES | IC50
1 | CC[C@@H](C)[C@@H]1NC(=O)[C@@H]2CCCN2C(=O)CCCCC/C=C/C[C@@H](C(=O)N[C@@H](CCCNC(=N)N)C(=O)N[C@H](C(N)=O)C(C)C)NC1=O [Compound R2246] | > 50000 nM
2 | CC(C)(C)[C@H](NC(=O)[C@H](CCN)NC(=O)[C@@H]1CSCc2cccc(c2)CSCCC(=O)N2CCC[C@H]2C(=O)N[C@@H](c2ccccc2)C(=O)N1)C(N)=O [Compound R2211, [mXylyl(1,4)](des-NH2)C-P-Phg-C-Dab-Tbg-NH2] ([Mpa]P[Phg]C[Dab][Tle]-NH2; linker 1-4 via mXylylene) | > 75000 nM
3 | N=C(N)NCCC[C@H](NC(=O)[C@@H]1CSCc2cccc(c2)CSCCC(=O)N2CCC[C@H]2C(=O)N[C@@H](C2CCCCC2)C(=O)N1)C(=O)O [Compound R2195, [mXylyl(1,4)](des-NH2)C-P-Chg-CR-OH] ([Mpa]P[Chg]CR-OH; linker 1-4 via mXylylene) | > 175000 nM
4 | CC(C)(C)[C@H](NC(=O)[C@H](CCCNC(=N)N)NC(=O)[C@@H]1C/C=C/c2cccc(c2)OCCCC(=O)N2CCC[C@H]2C(=O)N[C@@H](C2CCCCC2)C(=O)N1)C(N)=O [Compound R2262] | > 100000 nM
5 | CC[C@@H](C)[C@@H]1NC(=O)[C@@H]2CCCN2C(=O)CCCCCCCC/C=C/C[C@@H](C(=O)N[C@@H](CCCNC(=N)N)C(=O)N[C@H](C(N)=O)C(C)C)NC1=O [Compound R2243] | > 50000 nM

Further lines, results first:

Row | IC50 | SMILES
6 | 12.8 nM | CC(C)(C)[C@H](NC(=O)[C@H](CCCNC(=N)N)NC(=O)[C@@H]1CSCc2cccc(c2)CSCCC(=O)N2CCC[C@H]2C(=O)NC(C2CCc3ccccc3C2)C(=O)N1)C(N)=O (stereo partly drawn) [Compound R2267] ([Mpa]P[X1]CR[Tle]-NH2; linker 1-4 via mXylylene)
7 | > 12500 nM | CC(=O)N[C@@H](CS)C(=O)N[C@@H](CC(N)=O)C(=O)N(C)[C@@H](Cc1ccc(O)cc1)C(=O)N[C@@H](Cc1c[nH]c2ccccc12)C(=O)N[C@@H](CO)C(=O)N1CCC[C@H]1C(=O)N[C@@H](Cc1c[nH]c2ccccc12)C(=O)N[C@H](C(=O)N[C@@H](C)C(=O)N[C@@H](CS)C(N)=O)[C@@H](C)O [Compound R2239, Ac-CN-nMeY-WSPWTAC-NH2] (Ac-CN[NMeY]WSPWTAC-NH2)
8 | 6.8 nM | CCC[C@H](N)C(=O)N[C@H]1CSCc2cccc(c2)CSC[C@@H](C(=O)N[C@@H](CCCNC(=N)N)C(=O)N[C@H](C(N)=O)C(C)(C)C)NC(=O)[C@H](c2ccccc2)NC(=O)[C@H](CO)NC(=O)[C@H](CCC(=O)O)NC1=O [Compound R2013, [mXylyl(2,6)]Nvl-CES-Phg-CR-Tbg-NH2] (H-[Nva]CES[Phg]CR[Tle]-NH2; linker 2-6 via mXylylene)
9 | 3.2 nM | C[C@@H]1NC(=O)C(C)(C)NC(=O)CCSCc2cccc(c2)CSC[C@@H](C(=O)N[C@@H](CCCNC(=N)N)C(=O)N[C@H](C(N)=O)C(C)(C)C)NC(=O)[C@H](C2CCCCC2)NC1=O [Compound R2091, [mXylyl(1,5)](des-NH2)C-Aib-A-Chg-CR-Tbg-NH2] ([Mpa][Aib]A[Chg]CR[Tle]-NH2; linker 1-5 via mXylylene)
10 | 498 nM | CC(C)(C)[C@H](NC(=O)[C@H](CCCNC(=N)N)NC(=O)[C@@H]1CSCc2cccc(c2)CC(=O)NCCC(=O)N2CCC[C@H]2C(=O)N[C@@H](C2CCCCC2)C(=O)N1)C(N)=O [Compound R2258]
11 | 1.9 nM | CC[C@H](C)[C@@H]1NC(=O)[C@H](CO)NC(=O)[C@H](CCC(=O)O)NC(=O)[C@@H](NC(C)=O)CSCc2cccc(c2)CSC[C@@H](C(=O)N[C@@H](CCCNC(=N)N)C(=O)N[C@H](C(=O)N[C@@H](CC(C)C)C(=O)N[C@@H](CCCNC(=N)N)C(=O)N[C@@H](Cc2ccc(O)cc2)C(=O)N[C@@H](CO)C(N)=O)C(C)C)NC1=O [Compound R2056, [mXylyl(1,5)]Ac-CESICRVLRYS-NH2] (Ac-CESICRVLRYS-NH2; linker 1-5 via mXylylene)
12 | > 7930 nM | CC[C@H](C)[C@@H]1NC(=O)[C@H](CO)NC(=O)CSCc2cccc(c2)CSC[C@@H](C(=O)N[C@@H](CCCNC(=N)N)C(=O)N[C@H](C(N)=O)C(C)C)NC1=O [Compound R2154, [mXylyl(1,4)](2-SAc)-SICRV-NH2]
